# Test results as given in ChEMBL document CHEMBL3882724 (2013).
# How the values were obtained:
# [1] = target: T1, Steroid 17-alpha-hydroxylase/17,20 lyase (Homo sapiens, UniProt P05093); assay: Inhibition of CYP17 in human testicular microsomes using 17alpha-hydroxypregnenolone as substrate assessed as decrease in DHEA levels at 1 nM after 90 mins by ELISA relative to control; set-up: species or system Testis
# T1 sequence (P05093 whole entry): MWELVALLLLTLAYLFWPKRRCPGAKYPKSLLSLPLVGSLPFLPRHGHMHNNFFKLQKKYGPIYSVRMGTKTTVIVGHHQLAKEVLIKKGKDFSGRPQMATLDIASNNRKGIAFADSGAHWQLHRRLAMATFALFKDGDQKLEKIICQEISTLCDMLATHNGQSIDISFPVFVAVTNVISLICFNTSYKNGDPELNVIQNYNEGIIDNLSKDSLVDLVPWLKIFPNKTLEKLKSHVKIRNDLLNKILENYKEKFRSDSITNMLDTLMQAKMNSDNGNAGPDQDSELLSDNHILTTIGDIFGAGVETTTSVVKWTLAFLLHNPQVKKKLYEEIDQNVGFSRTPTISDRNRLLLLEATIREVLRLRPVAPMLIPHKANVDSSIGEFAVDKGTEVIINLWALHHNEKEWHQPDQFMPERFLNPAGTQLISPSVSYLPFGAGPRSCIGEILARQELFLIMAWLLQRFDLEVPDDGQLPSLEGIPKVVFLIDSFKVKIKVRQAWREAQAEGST
# [2] = target: T2, CYP21 (steroid 21-hydroxylase) (Homo sapiens, UniProt P08686); assay: Inhibition of human CYP21 transfected in HEK293 cells assessed as decrease in conversion of progesterone to 11-deoxycorticosterone preincubated for 5 hrs followed by progesterone addition measured after 20 hrs by ELISA; format: cell-based; set-up: concentration or dose not given beside the values; details: HEK293 cells transfected with human CYP21, probe progesterone
# T2 sequence (P08686 whole entry): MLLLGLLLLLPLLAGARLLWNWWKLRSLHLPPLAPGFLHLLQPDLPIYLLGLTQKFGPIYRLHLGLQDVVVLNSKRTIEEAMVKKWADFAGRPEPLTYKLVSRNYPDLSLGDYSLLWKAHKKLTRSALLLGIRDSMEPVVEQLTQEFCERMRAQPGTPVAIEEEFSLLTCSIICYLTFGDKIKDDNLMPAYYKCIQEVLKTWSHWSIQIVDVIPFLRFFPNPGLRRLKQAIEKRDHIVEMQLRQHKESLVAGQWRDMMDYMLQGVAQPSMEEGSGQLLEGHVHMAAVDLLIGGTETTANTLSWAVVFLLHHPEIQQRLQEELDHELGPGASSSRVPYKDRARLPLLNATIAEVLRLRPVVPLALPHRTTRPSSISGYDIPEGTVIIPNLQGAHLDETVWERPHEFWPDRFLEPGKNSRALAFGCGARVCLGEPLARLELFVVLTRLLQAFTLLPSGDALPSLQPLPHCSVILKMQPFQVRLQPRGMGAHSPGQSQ
# [3] = Half life in human liver microsomes at 1 uM by LC-MS/MS analysis
# [4] = target: T1, Steroid 17-alpha-hydroxylase/17,20 lyase; assay: Inhibition of CYP17 in human H295R cells assessed as decrease in testosterone levels after 24 hrs by ELISA; format: cell-based
# [5] = target: T1, Steroid 17-alpha-hydroxylase/17,20 lyase; assay: Inhibition of CYP17 in human testicular microsomes using 17alpha-hydroxypregnenolone as substrate assessed as decrease in DHEA levels after 90 mins by ELISA; set-up: species or system Testis
# [6] = target: T1, Steroid 17-alpha-hydroxylase/17,20 lyase; assay: Inhibition of CYP17 in human testicular microsomes using 17alpha-hydroxypregnenolone as substrate assessed as decrease in DHEA levels at 10 nM after 90 mins by ELISA relative to control; set-up: species or system Testis; details: 1.5 h
# [7] = Half life in rat liver microsomes at 1 uM by LC-MS/MS analysis
SMILES,IC50 [1],inhibition at 20 h [2],half-life at 1 µM [3],IC50 [4],IC50 [5],inhibition at 0.01 µM [6],half-life at 1 µM [7]
C[C@]12CC[C@H]3[C@@H](CC4(CC4)C4=CC(=O)CC[C@@]43C)C1=CC=C2c1cccnc1,≤ 0.01 µM,,,,,,
CN1CC[C@@]2(C)C(=CC1=O)CC[C@H]1C3=CC=C(c4cncc(F)c4)[C@@]3(C)CC[C@@H]12,> 0.1 µM,,,,,,
C[C@]12CCC(=O)C=C1C=C[C@@H]1[C@@H]2CC[C@]2(C)C(c3cccnc3)=CC[C@@H]12,> 0.1 µM,≥ 50%,1 to 50 min,,,,
CC(=O)N[C@@H]1CC[C@@]2(C)C(=CC[C@@H]3[C@@H]2CC[C@]2(C)C(c4cccnc4)=CC[C@@H]32)C1,,≥ 50%,1 to 50 min,≤ 0.015 µM,≤ 0.011 µM,,
CC1=C2CC[C@H]3C4=CC=C(c5cccnc5)[C@@]4(C)CC[C@@H]3[C@@]2(C)CCC1=O,> 0.1 µM,≥ 50%,,,,,
CC(=O)O[C@H]1CC[C@@]2(C)[C@@H](CC[C@@H]3[C@@H]2CC[C@]2(C)C(n4ccnn4)=CC[C@@H]32)C1,,,,≤ 0.015 µM,≤ 0.011 µM,≥ 80%,
C[C@]12CC/C(=N\O)C=C1C1(CC1)C[C@@H]1[C@@H]2CC[C@]2(C)C(c3cccnc3)=CC[C@@H]12,> 0.1 µM,10 to 50%,,,,,
CN1CC[C@@]2(C)C(=CC1=O)C1CC1[C@H]1C3=CC=C(c4cccnc4)[C@@]3(C)CC[C@@H]12 (some centres undefined),0.01 to 0.1 µM,,,,,,
C=C1C[C@H]2C3=CC=C(c4cccnc4)[C@@]3(C)CC[C@@H]2[C@@]2(C)C=CC(=O)C=C12,≤ 0.01 µM,,1 to 50 min,,,,
CC1C[C@H]2C3=CC=C(c4cncc(F)c4)[C@@]3(C)CC[C@@H]2[C@@]2(C)CCNC(=O)C=C12 (some centres undefined),0.01 to 0.1 µM,10 to 50%,1 to 50 min,,,,
C[C@]12CCC(=O)C=C1C1CC1[C@@H]1[C@@H]2CC[C@]2(C)C(c3cccnc3)=CC[C@@H]12 (some centres undefined),> 0.1 µM,≥ 50%,1 to 50 min,,,,
C[C@]12CC[C@H]3[C@@H](C=CC4=C(O)C(=O)CC[C@@]43C)C1=CC=C2c1cccnc1,> 0.1 µM,≥ 50%,1 to 50 min,,,,
C[C@]12CC[C@H]3[C@@H](CC=C4C[C@@H](O)CC[C@@]43C)C1=CC=C2c1cncc(F)c1,,≥ 50%,1 to 50 min,≤ 0.015 µM,≤ 0.011 µM,,
CC1C[C@@H]2[C@H](CC[C@]3(C)C(c4cccnc4)CC[C@@H]23)[C@@]2(C)CCNC(=O)C=C12 (some centres undefined),≤ 0.01 µM,,1 to 50 min,,,,
CC1C[C@@H]2[C@H](CC[C@]3(C)C(c4cccnc4)CC[C@@H]23)[C@@]2(C)CCC(=O)C=C12 (some centres undefined),≤ 0.01 µM,,1 to 50 min,,,,
CC1C[C@@H]2[C@H](CC[C@]3(C)C(c4cncc(F)c4)=CC[C@@H]23)[C@@]2(C)C=CC(=O)C=C12 (some centres undefined),0.01 to 0.1 µM,≥ 50%,,,≤ 0.011 µM,,
C[C@]12CC[C@H]3[C@@H](CC(C4CC4)C4=CC(=O)CC[C@@]43C)C1=CC=C2c1cccnc1 (some centres undefined),> 0.1 µM,10 to 50%,,,,,
C[C@]12CC[C@H]3[C@@H](CC[C@H]4C[C@@H](O)CC[C@@]43C)C1=CC=C2n1ccnc1,,,≥ 50 min,≤ 0.015 µM,≤ 0.011 µM,≥ 80%,10 to 60 min

SMILES,IC50 [1],inhibition at 20 h [2],half-life at 1 µM [3],IC50 [4],IC50 [5],inhibition at 0.01 µM [6],half-life at 1 µM [7]
CCC1C[C@@H]2[C@H](CC[C@]3(C)C(c4cccnc4)=CC[C@@H]23)[C@@]2(C)CCC(=O)C=C12 (some centres undefined),0.01 to 0.1 µM,10 to 50%,,,,,
C[C@]12CC(O)CC1CC[C@@H]1[C@@H]2CC[C@]2(C)C(c3cccnc3)=CC[C@@H]12 (some centres undefined),,≥ 50%,1 to 50 min,≤ 0.015 µM,≤ 0.011 µM,,
C=C1C[C@H]2C3=CC=C(c4cccnc4)[C@@]3(C)CC[C@@H]2[C@@]2(C)CCC(=O)C=C12,0.01 to 0.1 µM,,,,,,
C[C@]12C=C/C(=N\O)C=C1C1(CC1)C[C@@H]1[C@@H]2CC[C@]2(C)C(c3cccnc3)=CC[C@@H]12,> 0.1 µM,10 to 50%,,,,,
C[C@]12CCCC(=O)C1CC[C@@H]1[C@@H]2CC[C@]2(C)C(c3cccnc3)=CC[C@@H]12 (some centres undefined),,,,≤ 0.015 µM,≤ 0.011 µM,≥ 80%,
CC1C[C@H]2C3=CC=C(c4cccnc4)[C@@]3(C)CC[C@@H]2[C@@]2(C)CCN(C)C(=O)C=C12 (some centres undefined),0.01 to 0.1 µM,,,,,,
C[C@]12CCNC(=O)C=C1C1CC1[C@@H]1[C@@H]2CC[C@]2(C)C(c3cncc(F)c3)=CC[C@@H]12 (some centres undefined),,≥ 50%,1 to 50 min,≤ 0.015 µM,≤ 0.011 µM,,
C[C@]12CCNC(=O)C[C@@H]1CC[C@@H]1[C@@H]2CC[C@]2(C)C(n3ccnn3)=CC[C@@H]12,,,≥ 50 min,≤ 0.015 µM,≤ 0.011 µM,≥ 80%,10 to 60 min
CC1C[C@@H]2[C@H](CC[C@]3(C)C(c4cccnc4)=CC[C@@H]23)[C@@]2(C)CC/C(=N\O)C=C12 (some centres undefined),> 0.1 µM,10 to 50%,1 to 50 min,,,,
C[C@]12CC[C@H]3[C@@H](CC(CO)C4=CC(=O)CC[C@@]43C)C1=CC=C2c1cccnc1 (some centres undefined),> 0.1 µM,≥ 50%,,,≤ 0.011 µM,,
C[C@]12CC[C@H]3[C@@H](CC(F)C4(O)C[C@@H](O)CC[C@]34C)[C@@H]1CC=C2c1cncc(F)c1 (some centres undefined),,≥ 50%,1 to 50 min,≤ 0.015 µM,≤ 0.011 µM,,
C[C@]12CC[C@H]3[C@@H](CC4(CC4)C4=CC(=O)CC[C@@]43C)C1=CC=C2c1cncc(F)c1,0.01 to 0.1 µM,,,,,,
C[C@]12CCC(=O)C=C1C=C[C@@H]1[C@@H]2CC[C@]2(C)C(c3cncc(F)c3)=CC[C@@H]12,,≥ 50%,1 to 50 min,≤ 0.015 µM,≤ 0.011 µM,,
COc1cncc(C2=CC=C3[C@@H]4CC=C5C[C@@H](O)CC[C@]5(C)[C@H]4CC[C@]23C)c1,,,≥ 50 min,≤ 0.015 µM,≤ 0.011 µM,≥ 80%,≥ 50 min
C=C1C[C@H]2C3=CC=C(c4cncc(F)c4)[C@@]3(C)CC[C@@H]2[C@@]2(C)CCC(=O)C=C12,0.01 to 0.1 µM,,,,,,
"CC1CC2C3=CC=C(c4cncc(F)c4)[C@@]3(C)CC[C@@H]2[C@@]2(C)CCN(C)C(=O)C=C12 (single isomer, unassigned)",> 0.1 µM,,,,,,
"C[C@]12CCC(=O)C=C1C(F)CC1[C@@H]2CC[C@]2(C)C(c3cccnc3)=CC[C@@H]12 (single isomer, unassigned)",,≥ 50%,1 to 50 min,≤ 0.015 µM,≤ 0.011 µM,,
